# Measured values taken from article PMC10392026, “Vacuolar Phosphate Transporter1 (VPT1) may transport sugar in response to soluble sugar status of grape fruits” (Horticulture Research, 2022).
# Experiments:
# Assay type in all cases: cell-based
# AtVPT1 = molecular target: T1, AtVPT1 (Arabidopsis thaliana, UniProt F4I0G7); details: 1-20 mM Pi, 30 °C, 5 d; indirect growth read-out
# T1 construct: gene VPT1; full-length CDS (708 residues implied by AtVPT1_162-708) in pRS426, expressed in yeast Pi uptake mutant YP101
# T1 sequence (F4I0G7 1-708): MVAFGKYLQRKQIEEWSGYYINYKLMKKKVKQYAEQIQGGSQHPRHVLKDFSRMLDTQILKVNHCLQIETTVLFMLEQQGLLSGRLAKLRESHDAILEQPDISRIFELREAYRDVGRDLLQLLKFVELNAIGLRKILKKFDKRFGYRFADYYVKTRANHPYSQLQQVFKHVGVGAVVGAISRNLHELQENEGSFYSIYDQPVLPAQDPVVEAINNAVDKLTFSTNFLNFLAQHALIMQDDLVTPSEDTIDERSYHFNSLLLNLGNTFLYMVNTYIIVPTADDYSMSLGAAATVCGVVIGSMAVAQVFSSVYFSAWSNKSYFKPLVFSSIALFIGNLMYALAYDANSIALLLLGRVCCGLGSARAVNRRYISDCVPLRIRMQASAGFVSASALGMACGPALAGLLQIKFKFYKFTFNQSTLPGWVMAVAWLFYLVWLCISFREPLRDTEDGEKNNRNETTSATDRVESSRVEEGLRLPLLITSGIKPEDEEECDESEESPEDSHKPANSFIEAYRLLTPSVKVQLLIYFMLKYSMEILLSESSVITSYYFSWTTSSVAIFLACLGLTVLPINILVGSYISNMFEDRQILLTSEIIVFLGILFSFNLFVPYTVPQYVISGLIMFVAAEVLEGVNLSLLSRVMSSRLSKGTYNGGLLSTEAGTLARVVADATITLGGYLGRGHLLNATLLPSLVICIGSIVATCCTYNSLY
# VvVPT1 = molecular target: T2, VvVPT1 (Vitis vinifera, UniProt D7TW83); assay: fluorescent uptake in yeast, confocal microscopy; details: 60 uM 2-NBDG, 30 °C, 3 h; EBY.VW4000 yeast
# T2 construct: gene VIT_02s0025g04540; full-length CDS (698 residues implied by VvVPT1_155-698) in pDR195, expressed in yeast hexose transport mutant EBY.VW4000
# T2 sequence (D7TW83 entry or part of it): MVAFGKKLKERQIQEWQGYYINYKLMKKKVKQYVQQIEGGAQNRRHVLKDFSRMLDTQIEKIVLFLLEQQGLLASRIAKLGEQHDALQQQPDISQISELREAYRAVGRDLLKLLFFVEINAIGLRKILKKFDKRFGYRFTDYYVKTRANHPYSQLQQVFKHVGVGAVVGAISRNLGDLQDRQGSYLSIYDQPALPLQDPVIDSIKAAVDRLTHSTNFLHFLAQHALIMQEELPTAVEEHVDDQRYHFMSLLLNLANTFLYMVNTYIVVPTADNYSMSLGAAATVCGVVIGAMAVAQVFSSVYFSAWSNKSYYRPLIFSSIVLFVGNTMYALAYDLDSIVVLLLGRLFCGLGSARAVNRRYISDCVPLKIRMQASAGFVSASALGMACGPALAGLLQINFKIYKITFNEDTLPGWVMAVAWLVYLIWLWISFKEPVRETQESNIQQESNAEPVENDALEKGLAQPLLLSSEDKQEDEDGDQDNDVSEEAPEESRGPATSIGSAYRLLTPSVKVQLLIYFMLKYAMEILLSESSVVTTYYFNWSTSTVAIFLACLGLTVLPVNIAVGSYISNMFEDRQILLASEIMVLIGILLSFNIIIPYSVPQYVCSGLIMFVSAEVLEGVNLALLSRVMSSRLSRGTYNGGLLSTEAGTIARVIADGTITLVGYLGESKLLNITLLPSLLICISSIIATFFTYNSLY
# FaVPT1 [1] = molecular target: T3, FaVPT1 (Fragaria x ananassa, UniProt Z9SEB9UZJ4); assay: fluorescent uptake in yeast, confocal microscopy; details: […] esculin, […] Na2HPO4 pH […] °C, […] h; SUSY7/ura3 yeast
# T3 construct: full-length CDS (696 residues implied by FaVPT1_147-696) in pDR195, expressed in yeast sucrose transport mutant SUSY7/ura3
# T3 sequence (Z9SEB9UZJ4 1-696): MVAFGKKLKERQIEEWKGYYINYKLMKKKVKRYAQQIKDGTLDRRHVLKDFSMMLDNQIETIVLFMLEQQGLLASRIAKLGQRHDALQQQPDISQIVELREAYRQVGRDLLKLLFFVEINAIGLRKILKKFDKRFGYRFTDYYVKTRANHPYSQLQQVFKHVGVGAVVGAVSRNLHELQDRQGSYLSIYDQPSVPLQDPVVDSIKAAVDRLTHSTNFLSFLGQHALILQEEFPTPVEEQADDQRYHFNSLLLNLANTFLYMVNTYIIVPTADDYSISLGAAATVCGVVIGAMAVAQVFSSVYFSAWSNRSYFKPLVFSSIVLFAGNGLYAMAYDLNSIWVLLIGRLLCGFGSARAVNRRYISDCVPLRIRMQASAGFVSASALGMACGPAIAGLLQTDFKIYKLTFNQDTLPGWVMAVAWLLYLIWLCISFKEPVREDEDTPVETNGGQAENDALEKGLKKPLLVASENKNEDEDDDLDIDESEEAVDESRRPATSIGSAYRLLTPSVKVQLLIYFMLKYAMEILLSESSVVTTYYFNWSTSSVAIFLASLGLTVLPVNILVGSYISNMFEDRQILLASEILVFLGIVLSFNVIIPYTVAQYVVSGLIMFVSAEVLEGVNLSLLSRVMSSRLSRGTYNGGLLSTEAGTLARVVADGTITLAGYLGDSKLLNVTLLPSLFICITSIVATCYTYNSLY
# FaVPT1 [2] = molecular target: T3, FaVPT1; assay: yeast growth complementation (SUSY7/ura3); details: […] (w/v) Suc as sole carbon source, […] °C; indirect growth read-out
compound,measurement,setting,value
O=P(O)(O)O [Pi],yeast growth complementation (YP101),AtVPT1,"The yeast mutant transformed with FaVPT1, VvVPT1, or AtVPT1 restored growth"
"O=[N+]([O-])c1ccc(N[C@H]2C(O)O[C@H](CO)[C@@H](O)[C@@H]2O)c2nonc12 (stereo partly drawn) [2-NBDG, 2-[N-(7-nitrobenz-2-oxa-1,3-diazol-4-yl)amino]-2-deoxy-d-Glc]","fluorescent uptake in yeast, confocal microscopy",VvVPT1,The fluorescence in VvVPT1-expressed yeast strain was stronger than that of the WT
O=c1ccc2cc(O[C@@H]3O[C@H](CO)[C@@H](O)[C@H](O)[C@H]3O)c(O)cc2o1 [esculin],"fluorescent uptake in yeast, confocal microscopy",FaVPT1 [1],the FaVPT1-expressed yeast strain could take up both esculin and sucrose
OC[C@H]1O[C@@](CO)(O[C@H]2O[C@H](CO)[C@@H](O)[C@H](O)[C@H]2O)[C@@H](O)[C@@H]1O [Suc],yeast growth complementation (SUSY7/ura3),FaVPT1 [2],only FaVPT1 has sucrose transport capacity
